Results taken from US20240218022A1, “ANTI-VISTA MACROCYCLIC PEPTIDES AND COMPOSITIONS” (BRISTOL-MYERS SQUIBB COMPANY, priority 2022, published 2024).
Positions of bridges follow the written chain, without caps; N, C: chain ends. Non-standard residues stand in square brackets, D forms with d. Residues, ends and D or L forms follow the SMILES beside them. *: point of attachment. Phe(4-COOH) = N[C@@H](Cc1ccc(C(=O)O)cc1)C(=O)O; Phe(3-Me) = Cc1cccc(C[C@H](N)C(=O)O)c1; 2Nal = N[C@@H](Cc1ccc2ccccc2c1)C(=O)O; Gly(cPent) = N[C@H](C(=O)O)C1CCCC1; Tic = O=C(O)[C@@H]1Cc2ccccc2CN1; Aad = N[C@@H](CCCC(=O)O)C(=O)O; Cit = NC(=O)NCCC[C@H](N)C(=O)O; Gly(cPr) = N[C@H](C(=O)O)C1CC1; Ahp(2) = CCCCC[C@H](N)C(=O)O; NMeNle = CCCC[C@H](NC)C(=O)O; Tle = CC(C)(C)[C@H](N)C(=O)O; Pip = O=C(O)[C@@H]1CCCCN1; Carboxymethyl = O=C(O)C*; NHexGly = CCCCCCNCC(=O)O; NMeA = CN[C@@H](C)C(=O)O; Nle = CCCC[C@H](N)C(=O)O; Orn = NCCC[C@H](N)C(=O)O

Biological target: T1, mouse VISTA (mVISTA) (Mus musculus, UniProt Q9D659)
T1 construct: expressed in transfected cells; host or cells: Human embryonic kidney 293T cells
T1 sequence (Q9D659 33-308): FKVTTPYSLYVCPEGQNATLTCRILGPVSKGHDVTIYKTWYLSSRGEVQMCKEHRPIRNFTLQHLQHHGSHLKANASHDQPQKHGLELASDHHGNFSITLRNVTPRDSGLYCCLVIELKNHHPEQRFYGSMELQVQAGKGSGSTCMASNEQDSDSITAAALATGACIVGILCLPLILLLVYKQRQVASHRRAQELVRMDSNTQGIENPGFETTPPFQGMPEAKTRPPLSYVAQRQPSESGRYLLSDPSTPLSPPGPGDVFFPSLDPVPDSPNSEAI
Test: Cell-Based Binding High-Content Assay For mVISTA (HC CBA mVISTA)
Settings: read-out: HC CBA mVISTA IC50
Outline: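 mVISTA-293T, 4,000 cells/well; cpd ± washout step; biotin-peptide 2 nM final, 30 min RT; SA-Alexa 647 30 min; formaldehyde/Hoechst fix; HCS imaging; 4PL IC50.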

Row | IC50 [nM] | SMILES
1 | 22.4 | CCCCCCN1CC(=O)N[C@@H](Cc2ccc(O)cc2)C(=O)N[C@@H](CCCC)C(=O)N[C@@H](CC(N)=O)C(=O)N[C@@H](CCCNC(=N)N)C(=O)N(C)[C@@H](CCCC)C(=O)N[C@@H](CCCCC)C(=O)N2CCC[C@H]2C(=O)N[C@@H](C(C)C)C(=O)N[C@@H](CC(=O)O)C(=O)N[C@H](C(=O)N[C@@H](CCCCN)C(=O)N[C@@H](CCC(N)=O)C(=O)O)CSCC(=O)N[C@@H](Cc2ccc3ccccc3c2)C(=O)N[C@@H](Cc2c[nH]c3ccccc23)C(=O)N[C@@H](CC(=O)O)C1=O [compound 1137] ({CH2CO}-[2Nal]WD[NHexGly]Y[Nle]NR[NMeNle][Ahp(2)]PVDCKQ-OH; thioether N-14)
2 | 36.2 | CCCCCCN1CC(=O)N[C@@H](Cc2ccc(O)cc2)C(=O)N[C@@H](CCCC)C(=O)N[C@@H](CC(N)=O)C(=O)N[C@@H](CCCNC(=N)N)C(=O)N(C)[C@@H](CCCC)C(=O)N[C@@H](CCCCC)C(=O)N2CCC[C@H]2C(=O)N[C@@H](C(C)C)C(=O)N[C@@H](CC(=O)O)C(=O)N[C@H](C(=O)N[C@@H](CCCN)C(=O)N[C@@H](CC(N)=O)C(=O)O)CSCC(=O)N[C@@H](Cc2ccc3ccccc3c2)C(=O)N[C@@H](Cc2c[nH]c3ccccc23)C(=O)N[C@@H](CC(=O)O)C1=O [compound 1139] ({CH2CO}-[2Nal]WD[NHexGly]Y[Nle]NR[NMeNle][Ahp(2)]PVDC[Orn]N-OH; thioether N-14)
3 | 19.1 | CCCCCCN1CC(=O)N[C@@H](Cc2ccc(O)cc2)C(=O)N[C@@H](CCCC)C(=O)N[C@@H](CC(N)=O)C(=O)N[C@@H](CCCNC(=N)N)C(=O)N(C)[C@@H](CCCC)C(=O)N[C@@H](CCCCC)C(=O)N2CCC[C@H]2C(=O)N[C@@H](C(C)C)C(=O)N[C@@H](CC(=O)O)C(=O)N[C@H](C(=O)N[C@@H](CCCN)C(=O)N[C@@H](CCC(N)=O)C(=O)O)CSCC(=O)N[C@@H](Cc2ccc3ccccc3c2)C(=O)N[C@@H](Cc2c[nH]c3ccccc23)C(=O)N[C@@H](CC(=O)O)C1=O [compound 1140] ({CH2CO}-[2Nal]WD[NHexGly]Y[Nle]NR[NMeNle][Ahp(2)]PVDC[Orn]Q-OH; thioether N-14)
4 | 17.6 | CCCCCCN1CC(=O)N[C@@H](Cc2ccc(O)cc2)C(=O)N[C@@H](CCCC)C(=O)N[C@@H](CC(N)=O)C(=O)N[C@@H](CCCNC(=N)N)C(=O)N(C)[C@@H](CCCC)C(=O)N[C@@H](CCCCC)C(=O)N(C)[C@@H](C)C(=O)N[C@@H](C(C)C)C(=O)N[C@@H](CO)C(=O)N[C@H](C(=O)NCC(N)=O)CSCC(=O)N[C@@H](Cc2ccccc2)C(=O)N[C@@H](Cc2c[nH]c3ccccc23)C(=O)N[C@@H](CC(=O)O)C1=O [compound 1143] ({CH2CO}-FWD[NHexGly]Y[Nle]NR[NMeNle][Ahp(2)][NMeA]VSCG-NH2; thioether N-14)
5 | 15.8 | CCCCCCN1CC(=O)N[C@@H](Cc2ccc(O)cc2)C(=O)N[C@@H](CCCC)C(=O)N[C@@H](CC(N)=O)C(=O)N[C@@H](CCCNC(N)=O)C(=O)N(C)[C@@H](CCCC)C(=O)N[C@@H](CCCCC)C(=O)N(C)[C@@H](C)C(=O)N[C@@H](C(C)C)C(=O)N[C@@H](CO)C(=O)N[C@H](C(=O)NCC(N)=O)CSCC(=O)N[C@@H](Cc2ccccc2)C(=O)N[C@@H](Cc2c[nH]c3ccccc23)C(=O)N[C@@H](CC(=O)O)C1=O [compound 1144] ({CH2CO}-FWD[NHexGly]Y[Nle]N[Cit][NMeNle][Ahp(2)][NMeA]VSCG-NH2; thioether N-14)
6 | 28.6 | CCCCCCN1CC(=O)N[C@@H](Cc2ccc(O)cc2)C(=O)N[C@@H](CCCC)C(=O)N[C@@H](CC(N)=O)C(=O)N[C@@H](CCCNC(=N)N)C(=O)N(C)[C@@H](CCCC)C(=O)N[C@@H](CCCCC)C(=O)N2CCCC[C@H]2C(=O)N[C@@H](C(C)C)C(=O)N[C@@H](CO)C(=O)N[C@H](C(=O)NCC(N)=O)CSCC(=O)N[C@@H](Cc2ccccc2)C(=O)N[C@@H](Cc2c[nH]c3ccccc23)C(=O)N[C@@H](CC(=O)O)C1=O [compound 1145] ({CH2CO}-FWD[NHexGly]Y[Nle]NR[NMeNle][Ahp(2)][Pip]VSCG-NH2; thioether N-14)
7 | 21.7 | CCCCCCN1CC(=O)N[C@@H](Cc2ccc(O)cc2)C(=O)N[C@@H](CCCC)C(=O)N[C@@H](CC(N)=O)C(=O)N[C@@H](CCCNC(N)=O)C(=O)N(C)[C@@H](CCCC)C(=O)N[C@@H](CCCCC)C(=O)N2CCCC[C@H]2C(=O)N[C@@H](C(C)C)C(=O)N[C@@H](CO)C(=O)N[C@H](C(=O)NCC(N)=O)CSCC(=O)N[C@@H](Cc2ccccc2)C(=O)N[C@@H](Cc2c[nH]c3ccccc23)C(=O)N[C@@H](CC(=O)O)C1=O [compound 1146] ({CH2CO}-FWD[NHexGly]Y[Nle]N[Cit][NMeNle][Ahp(2)][Pip]VSCG-NH2; thioether N-14)
8 | 24 | CCCCCCN1CC(=O)N[C@@H](Cc2ccc(O)cc2)C(=O)N[C@@H](CCCCC)C(=O)NCC(=O)N[C@@H](CCCNC(=N)N)C(=O)N[C@@H](CC(C)C)C(=O)N[C@@H](CCCCC)C(=O)N2CCCC[C@H]2C(=O)N[C@@H](C(C)C)C(=O)N[C@@H](CO)C(=O)N[C@H](C(=O)NCC(N)=O)CSCC(=O)N[C@@H](Cc2ccccc2)C(=O)N[C@@H](Cc2ccc(O)cc2)C(=O)N[C@@H](CC(=O)O)C1=O [compound 1155] ({CH2CO}-FYD[NHexGly]Y[Ahp(2)]GRL[Ahp(2)][Pip]VSCG-NH2; thioether N-14)
9 | 11.1 | CCCCCCN1CC(=O)N[C@@H](Cc2ccc(O)cc2)C(=O)N[C@@H](CC(C)C)C(=O)NCC(=O)N[C@@H](CCCNC(=N)N)C(=O)N2Cc3ccccc3C[C@H]2C(=O)N[C@@H](CCCCC)C(=O)N2CCC[C@H]2C(=O)N[C@@H](C(C)C)C(=O)N[C@@H](CO)C(=O)N[C@H](C(=O)NCC(N)=O)CSCC(=O)N[C@@H](Cc2ccccc2)C(=O)N[C@@H](Cc2ccc(O)cc2)C(=O)N[C@@H](CC(=O)O)C1=O [compound 1158] ({CH2CO}-FYD[NHexGly]YLGR[Tic][Ahp(2)]PVSCG-NH2; thioether N-14)
10 | 38.8 | CCCCCCN1CC(=O)N[C@@H](Cc2ccc(O)cc2)C(=O)N[C@@H](Cc2ccc(C(=O)O)cc2)C(=O)N[C@@H](CC(N)=O)C(=O)N[C@@H](CCCNC(=N)N)C(=O)N(C)[C@@H](CCCC)C(=O)N[C@@H](CCCCC)C(=O)N2CCC[C@H]2C(=O)N[C@@H](C(C)(C)C)C(=O)N[C@@H](CC(=O)O)C(=O)N[C@H](C(N)=O)CSCC(=O)N[C@@H](Cc2ccccc2)C(=O)N[C@@H](Cc2c[nH]c3ccccc23)C(=O)N[C@@H](CC(=O)O)C1=O [compound 1167] ({CH2CO}-FWD[NHexGly]Y[Phe(4-COOH)]NR[NMeNle][Ahp(2)]P[Tle]DC-NH2; thioether N-14)
11 | 26.2 | CCCCCCN1CC(=O)N[C@@H](Cc2ccc(O)cc2)C(=O)N[C@@H](Cc2ccc(OCC(=O)O)cc2)C(=O)N[C@@H](CC(N)=O)C(=O)N[C@@H](CCCNC(=N)N)C(=O)N(C)[C@@H](CCCC)C(=O)N[C@@H](CCCCC)C(=O)N2CCC[C@H]2C(=O)N[C@@H](C(C)(C)C)C(=O)N[C@@H](CC(=O)O)C(=O)N[C@H](C(N)=O)CSCC(=O)N[C@@H](Cc2ccccc2)C(=O)N[C@@H](Cc2c[nH]c3ccccc23)C(=O)N[C@@H](CC(=O)O)C1=O [compound 1168] ({CH2CO}-FWD[NHexGly]YY(Carboxymethyl)NR[NMeNle][Ahp(2)]P[Tle]DC-NH2; thioether N-14)
12 | 38.4 | CCCCCCN1CC(=O)N[C@@H](Cc2ccc(O)cc2)C(=O)N[C@@H](CCCC(=O)O)C(=O)N[C@@H](CC(N)=O)C(=O)N[C@@H](CCCNC(=N)N)C(=O)N(C)[C@@H](CCCC)C(=O)N[C@@H](CCCCC)C(=O)N2CCC[C@H]2C(=O)N[C@@H](C(C)(C)C)C(=O)N[C@@H](CC(=O)O)C(=O)N[C@H](C(N)=O)CSCC(=O)N[C@@H](Cc2ccccc2)C(=O)N[C@@H](Cc2c[nH]c3ccccc23)C(=O)N[C@@H](CC(=O)O)C1=O [compound 1169] ({CH2CO}-FWD[NHexGly]Y[Aad]NR[NMeNle][Ahp(2)]P[Tle]DC-NH2; thioether N-14)
13 | 15.9 | CCCCCCN1CC(=O)N[C@@H](Cc2ccc(O)cc2)C(=O)N[C@@H](CCCC)C(=O)N[C@@H](CC(N)=O)C(=O)N[C@@H](CCCNC(=N)N)C(=O)N[C@@H](CC(C)C)C(=O)N[C@@H](C2CCCC2)C(=O)N2CCC[C@H]2C(=O)N[C@@H](C(C)C)C(=O)N[C@@H](CC(=O)O)C(=O)N[C@H](C(=O)NCC(=O)O)CSCC(=O)N[C@@H](Cc2ccc3ccccc3c2)C(=O)N[C@@H](Cc2c[nH]c3ccccc23)C(=O)N[C@@H](CC(=O)O)C1=O [compound 1181] ({CH2CO}-[2Nal]WD[NHexGly]Y[Nle]NRL[Gly(cPent)]PVDCG-OH; thioether N-14)
14 | 23.6 | CCCCCCN1CC(=O)N[C@@H](Cc2ccc(O)cc2)C(=O)N[C@@H](CCCC)C(=O)N[C@@H](CC(N)=O)C(=O)N[C@@H](CCCNC(=N)N)C(=O)N[C@@H](CC(C)C)C(=O)N[C@@H](C2CC2)C(=O)N2CCC[C@H]2C(=O)N[C@@H](C(C)C)C(=O)N[C@@H](CC(=O)O)C(=O)N[C@H](C(=O)NCC(=O)O)CSCC(=O)N[C@@H](Cc2ccc3ccccc3c2)C(=O)N[C@@H](Cc2c[nH]c3ccccc23)C(=O)N[C@@H](CC(=O)O)C1=O [compound 1182] ({CH2CO}-[2Nal]WD[NHexGly]Y[Nle]NRL[Gly(cPr)]PVDCG-OH; thioether N-14)
15 | 44.8 | CCCCCCN1CC(=O)N[C@@H](Cc2ccc(O)cc2)C(=O)N[C@@H](CCCC)C(=O)N[C@@H](CC(N)=O)C(=O)N[C@@H](CCCNC(=N)N)C(=O)N(C)[C@@H](CCCC)C(=O)N[C@@H](CCCCC)C(=O)N2CCC[C@H]2C(=O)N[C@@H](C(C)C)C(=O)N[C@@H](CC(=O)O)C(=O)N[C@H](C(=O)NCC(=O)O)CSCC(=O)N[C@@H](Cc2ccc3ccccc3c2)C(=O)N[C@@H](Cc2cccc(C)c2)C(=O)N[C@@H](CC(=O)O)C1=O [compound 1200] ({CH2CO}-[2Nal][Phe(3-Me)]D[NHexGly]Y[Nle]NR[NMeNle][Ahp(2)]PVDCG-OH; thioether N-14)
